We go through two compounds from patent publication US8796176B2, “Pesticidal composition comprising an alpha-alkoxyphenyl acetic acid derivative and a neonicotinoid compound” (Sumitomo Chemical Company, Ltd, priority 2008, dated 2014).

For this test, the system named is Rhizoctonia solani. Description: Cucumber seed treatment test against Rhizoctonia solani (Test Example 4). The format is in vivo. To be noted: cucumber seeds, seventh day after dissemination. Here is the method:
5: Diameter of maculation: >20 mm Incidence of disease=Σ(Evaluation index of leaves checked)×100/(Number of total leaves checked) “Equation 1” Control value=100(A−B)/A “Equation 2” A: Incidence of disease of plant in untreated area B: Incidence of disease of plant in treated area Generally, the control value expected for the case where the given two kinds of active ingredient compounds are mixed and used for the treatment, the so-called control value expectation is calculated from the following Colby's calculating equation. […] They were allowed to grow in a greenhouse while irrigated and the number of non-budding seeds was checked on the seventh day after the dissemination and the incidence of disease was calculated by Equation 4. The control value was calculated by Equation 2 based on the incidence of disease. […]

As for `CN/C(=N\[N+](=O)[O-])NCc1cnc(Cl)s1` [Clothianidin, clothianidin], the Actual control value (clothianidin alone 200 g/Seed 100 kg) worked out at 4%.

Regarding `CNC(=O)C(OC)c1ccccc1COc1cc(C)ccc1C` (racemic) [(1b)], the Actual control value (compound (1b) alone 10 g/Seed 100 kg) is listed as 35%.
